Measurements from patent US11192916B2, “Pentacyclic triterpene compound and preparation method therefor, and pharmaceutical composition and use thereof” (SHANGHAI INSTITUTE OF MATERIA MEDICA, CHINESE ACADEMY OF …, priority 2017, dated 2021).

Columns and labels:
Assay type in all cases: cell-based
FXR = target: T1, FXR (Homo sapiens, UniProt Q96RI1); assay: FXR antagonist test, luciferase reporter gene experiment against agonist GW4064; details: antagonistic activity; HEK293 cells co-transfected with LBD(hFXR)-pbind and luciferase reporter; GW4064 300 nM
T1 sequence (Q96RI1 262-486 limits assumed): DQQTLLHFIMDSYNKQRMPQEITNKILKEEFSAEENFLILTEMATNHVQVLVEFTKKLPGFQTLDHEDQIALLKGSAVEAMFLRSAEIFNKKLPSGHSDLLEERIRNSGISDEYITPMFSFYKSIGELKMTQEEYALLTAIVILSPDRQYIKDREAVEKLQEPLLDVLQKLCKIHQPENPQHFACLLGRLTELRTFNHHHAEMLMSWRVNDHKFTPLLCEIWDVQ
Excerpt: The antagonistic activity of the compound against FXR was detected by the reporter gene experiment. FXR is a nuclear receptor activated by bile acids and has regulatory effects on glucose metabolism and lipid metabolism in the body. After FXR is activated, it can initiate the expression of a series of genes and respond to external stimuli. The Luciferase reporter gene system is a reporting system for detecting firefly luciferase activity. Luciferase can catalyze the oxidation of Luciferin, a fluorescent substrate, and cause emition of biological fluorescence at the same time. The amount of luciferase expression can be determined by detecting the fluorescence intensity. In this experiment, the test compound may target FXR, and GW4064 is a known FXR agonist, which initiates the expression of a series of genes after binding to the FXR ligand-binding domain. Therefore, the reporter gene experiment was used. Two plasmids, LBD (hFXR)-pbind and PGL4.31-Luc were co-transfected into HEK293 cells to express the FXR ligand-binding domain in the cells. Two test compounds were separately added and a blank control group was set, and then an agonist was added. If the compound has affinity for FXR, it will compete with the agonist for binding to the FXR ligand-binding domain and affect the expression of luciferase in pGL4.31-Luc. The Envision2101 multi-well microplate reader was used to detect the chemiluminescence count value, and the effect of the test compound on FXR activity was judged based on the fluorescence intensity. 2 μg of the chimeric plasmid LBD(hFXR)-pbind and 2 μg of Luciferase reporter plasmid were co-transfected into 2×10^6 HEK293 cells and inoculated in white opaque 96-well plates. After 24 h, the culture medium was discarded, and the test compound (diluted with serum-free culture medium, containing 1% DMSO) was added and incubated for 1 h. Then FXR agonist GW4064 (300 nM) was added to stimulate for 6 h, and finally luciferase substrate was added and shaken to lyse. Luminescence was measured on the Envision 2104 microplate reader.

HEK293 cells = assay: CCK-8 cytotoxicity test; details: for CCK-8 Assay (30 μM): cytotoxicity on HEK293 cells at 30 μM; for CCK-8 Assay (100 μM): cytotoxicity on HEK293 cells at 100 μM
Procedure: The cytotoxicity of the compounds was evaluated by using CCK-8 experiment. CCK-8 is an indicator of redox reaction. In the presence of the electron carrier 1-Methoxy PMS, dehydrogenase in living cells is used to catalyze the tetrazolium salt WST-8 to form formazan dye. The production amount of formazan dye has a linear relationship with the number of living cells. The light absorption value measured at 450 nm using a microplate reader can indirectly reflect the number of living cells. Therefore, this method is used for the activity detection of some bioactive factors, large-scale anti-tumor drug screening, cell proliferation test, cytotoxicity test, and drug sensitivity test. This experiment is used to evaluate the cytotoxicity of the compounds. 2 μg of the chimeric plasmid LBD(hFXR)-pbind and 2 μg of Luciferase reporter plasmid were co-transfected into 2×10^6 HEK293 cells and inoculated in transparent 96-well plates. After 24 h, the culture medium was discarded and the test compound (diluted in serum-free culture medium, containing 1% DMSO) was added and incubated for 1 h, then FXR agonist GW4064 (300 nM) was added to agitate for 4 h. 10 μl detection reagent for CCK-8 was added to each well. After 2 hours, absorbance values at 450 nm and 650 nm (as reference wavelength) were detected with Flextation instrument.

TGR5 = target: T2, TGR5 (Homo sapiens, UniProt Q8TDU6); assay: TGR5 agonist test, HTRF cAMP detection in HEK293 cells transiently transfected with TGR5; details: Table 2, TGR5 agonistic activity, HEK293 cells expressing TGR5, up to 100 μM, read-out: FXR (IC50/μM)
T2 construct: expressed in transfected cells; host or cells: HEK293
T2 sequence (Q8TDU6 1-330): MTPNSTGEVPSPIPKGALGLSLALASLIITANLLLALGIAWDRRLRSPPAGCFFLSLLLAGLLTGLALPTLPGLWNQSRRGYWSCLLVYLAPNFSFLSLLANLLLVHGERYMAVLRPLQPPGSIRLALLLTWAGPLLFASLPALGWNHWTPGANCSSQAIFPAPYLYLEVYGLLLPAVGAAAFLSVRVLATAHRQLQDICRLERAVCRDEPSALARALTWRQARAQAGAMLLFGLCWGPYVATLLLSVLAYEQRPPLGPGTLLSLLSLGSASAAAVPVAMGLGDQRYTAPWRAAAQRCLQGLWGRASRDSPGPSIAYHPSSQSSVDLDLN
Excerpt: HEK293 cells transiently transfected with TGR5 were stimulated with compounds, and then homogeneous time-resolved fluorescence (HTRF) was used to detect whether these compounds could agitate TGR5.
TGR5 is a bile acid membrane receptor and a member of the GPCR family. It regulates the metabolism of bile acids, lipids, and sugars. TGR5 is coupled to the Gs protein, and after activation, it further activates adenylate cyclase to produce a second messenger cAMP. HTRF is a method for detecting the content of cAMP and combines two techniques of fluorescence resonance energy transfer (FRET) and time-resolved fluorescence (TRF). […] FRET induces the acceptor to generate fluorescence, and Eu has a long fluorescence lifetime. TRF can distinguish the fluorescent signal by the acceptor from the fluorescent background. The fluorescent donor is bound to a cAMP-specific antibody, and cAMP is simultaneously labeled with a fluorescent acceptor. The donor and acceptor approach to each other through the antigen-antibody specific recognition reaction to generate FRET, and the cAMP produced by the cell competes with the labeled cAMP for antibody binding sites, resulting in the decrease of fluorescence intensity.
4.1. The test compound was prepared with 1× PBS into a solution having 2 times of the final concentration. The final concentration was 100 μM, 10 μM, 1 μM, 100 nM, 10 nM, 1 nM, 0.1 nM, DMSO (each well contains 1% DMSO).
4.2.2. The cell density was determined. At the same time, IBMX (final concentration of […]) was added into the serum-free culture medium, and the number of cells was 2000/5 μl/well.
4.2.3. 5 μl of the test compound and 5 μl of the cell suspension containing IBMX were added and mixed. A 384-well plate was sealed with a foil paper. The mixtures were protected from light and reacted at room temperature for […].
4.3.1 1 μl cAMP-d2 was diluted to 20 μl by using cAMP&cGMP conjugates & lysis buffer. 4.3.2 1 μl anti-cAMP-Cryptate was diluted to 20 μl by using cAMP&cGMP conjugates&lysis buffer.
4.3.3 After 30 minutes, 5 μl (1.3.1) and 5 μl (1.3.2) were added and a 384-well plate was sealed with a foil paper. The mixtures were protected from light and reacted at room temperature.
4.4. After 60 minutes, the values were detected by Envision 2101 microplate reader (PerkinElmer).

SMILES | IC50 (FXR) | CCK-8 Assay (30 μM) (HEK293 cells) | CCK-8 Assay (100 μM) (HEK293 cells) | EC50 (TGR5)
CC(C)[C@@H]1CC[C@]2(C(=O)NCC(=O)O)CC[C@]3(C)C(CCC4[C@@]5(C)CC[C@@H](O)C(C)(C)C5CC[C@]43C)C12 (stereo partly drawn) [Compound C1] | 13.9 µM | no | no | > 100 µM
CC(=O)O[C@@H]1CC[C@@]2(C)C(CC[C@]3(C)C2CCC2C4[C@H](C(C)C)CC[C@]4(C(=O)NCC(=O)O)CC[C@]23C)C1(C)C (stereo partly drawn) [Compound C2] | 6.31 µM | no | no | > 100 µM
CCC(=O)O[C@@H]1CC[C@@]2(C)C(CC[C@]3(C)C2CCC2C4[C@H](C(C)C)CC[C@]4(C(=O)NCC(=O)O)CC[C@]23C)C1(C)C (stereo partly drawn) [Compound C3] | 3.89 µM | no | no | > 100 µM
CCCC(=O)O[C@@H]1CC[C@@]2(C)C(CC[C@]3(C)C2CCC2C4[C@H](C(C)C)CC[C@]4(C(=O)NCC(=O)O)CC[C@]23C)C1(C)C (stereo partly drawn) [Compound C4] | 2.05 µM | no | no | > 100 µM
CCCC(=O)O[C@H]1CC[C@@]2(C)C(CC[C@]3(C)C2CCC2C4[C@H](C(C)C)CC[C@]4(C(=O)NCC(=O)O)CC[C@]23C)C1(C)C (stereo partly drawn) [Compound C12] | 8.27 µM | no | no | > 100 µM
CC(C)[C@@H]1CC[C@]2(C(=O)NCC(=O)O)CC[C@]3(C)C(CCC4[C@@]5(C)CC[C@@H](OC(=O)c6cccnc6)C(C)(C)C5CC[C@]43C)C12 (stereo partly drawn) [Compound C16] | 5.67 µM | no | no | > 100 µM
